The source of these data is patent publication US20250099517A1, “Use of Lactobacillus reuteri Y7 strain for prevention or treatment of ocular diseases” (Taipei Medical University, priority 2023, published 2025).

Assay type in all cases: in vivo, C57BL/6 mice
Data set [1] concerns Bax, Bcl-2, Caspase3 gene expression. The data set can be described thus: q-PCR of apoptosis-related gene expression in eyes. Here is the method:
The C57BL/6 mice, which weighed between 23 and 25 g, were divided into seven groups randomly. In each group, the six mice induced by blue light successfully were incorporated in experiments. The samples dissolved in deuterium-depleted water (DDW) were fed to mice through oral tubes once a day. The groups were named and introduced as follows: • (1) Solvent not classified group (NC): The mice were fed with 0.2 ml deuterium-depleted water (DDW) through tubes; • (2) Negative control group (Blue light (BL)): The mice were fed with 0.2 ml deuterium-depleted water (DDW) through tubes and exposed to blue light; • (3) Low-dosage Y7 probiotics group […]): The mice were fed with low-dosage Y7 probiotics (probiotic counts of 1.0×10^8 CFU/ml dissolved in 0.2 ml DDW per day) and exposed to blue light; • (4) High-dosage Y7 probiotics group […]): The mice were fed with high-dosage Y7 probiotics (probiotic counts of 1.0×10^9 CFU/ml dissolved in 0.2 ml DDW per day) and exposed to blue light; • (5) Positive control group (lutein (LU)): The mice were fed with lutein and exposed to blue light. The recommended human dosage of lutein is 30 mg. The mouse cage (48×25×20 cm) placed inside a stainless ventilated box was equipped with blue light boards as blue light sources around and above. In the experiment of animals exposed to blue light, six-week-old mice staying in the mouse cage were fed with drinking water as well as fodders and exposed to 400 Lux blue light illumination under the light-dark cycle of 12-hour light and 12-hour dark. The experiment was aimed at causing mice' late dry macular disease induced by chronic light injuries for simulating a human being's macular disease after long-term exposure to short-wavelength blue light from 3C products in daily life. The eyes of a mouse sacrificed were collected for the following purposes. RNAs extracted with Trizol were reverse-transcribed to cDNAs. Then, the real-time quantitative polymerase chain reaction was enabled to detect gene expressions related to inflammatory hormones and apoptosis such as TNF-α, IL-1B, IL-6, Bax, Bcl-2, Caspase1, Caspase3 and NLRP3 for comparisons with the endogenous level of β-actin, GAPDH or 18S rRNA. [table] The gene expressions related to apoptosis in test mice' eyes, for example, Bax (FIG. 9a), Bcl-2 (FIG. 9b) and Caspase3 (FIG. 9c), were analyzed in the experiment.

Data set [2] in a line: water intakes of mice during the experiment. The conditions noted are these: LU, lutein 6.15 mg/kg bw oral daily, blue light, Mean±S.E.M., n=6. On the procedure: (§1) In the present invention, six-week-old male C57BL/6 mice were placed in a breeding cage in which the following feeding conditions were kept: temperature, 22±2° C., humidity, 55±5%, and the light-dark cycle of 12-hour light and 12-hour dark. The mice were fed with fodders at the adaptive phase for one week; general solid fodders for test animals were administered to mice of the control group and mice during the adaptive phase. The initial day was defined as Day 0 when the adaptive phase for the mice was over. From the next week, the mice were interfered with samples under test and exposed to blue light. During the experiments, the mice were monitored for weights as well as water intakes and checked for any physiological change. The data for experiments through electroretinography (ERG), fndus photography (FP), fundus fluorescein angiograph (FFA), spectral-domain optical coherence tomography (SD-OCT) and intraocular pressure (IOP) were collected at Day 0, Day 21 and Day 35, as shown in FIG. 1 for the experimental process. The C57BL/6 mice, which weighed between 23 and 25 g, were divided into seven groups randomly. In each group, the six mice induced by blue light successfully were incorporated in experiments. The samples dissolved in deuterium-depleted water (DDW) were fed to mice through oral tubes once a day. The groups were named and introduced as follows: • (1) Solvent not classified group (NC): The mice were fed with 0.2 ml deuterium-depleted water (DDW) through tubes; • (2) Negative control group (Blue light (BL)): The mice were fed with 0.2 ml deuterium-depleted water (DDW) through tubes and exposed to blue light; • (3) Low-dosage Y7 probiotics group […]): The mice were fed with low-dosage Y7 probiotics (probiotic counts of 1.0×10^8 CFU/ml dissolved in 0.2 ml DDW per day) and exposed to blue light; • (4) High-dosage Y7 probiotics group […]): The mice were fed with high-dosage Y7 probiotics (probiotic counts of 1.0×10^9 CFU/ml dissolved in 0.2 ml DDW per day) and exposed to blue light; • (5) Positive control group (lutein (LU)): The mice were fed with lutein and exposed to blue light. The recommended human dosage of lutein is 30 mg. The mouse cage (48×25×20 cm) placed inside a stainless ventilated box was equipped with blue light boards as blue light sources around and above. In the experiment of animals exposed to blue light, six-week-old mice staying in the mouse cage were fed with drinking water as well as fodders and exposed to 400 Lux blue light illumination under the light-dark cycle of 12-hour light and 12-hour dark. The experiment was aimed at causing mice' late dry macular disease induced by chronic light injuries for simulating a human being's macular disease after long-term exposure to short-wavelength blue light from 3C products in daily life. All data written as the form of mean±standard error of the mean (S.E.M.) were used in the statistical analysis through the one-way ANOVA and the Newman-Keuls test; p<0.05 denoted statistical difference. In the experiment, the software for the statistical analysis was Graph pad Prism (v9.2.0). The data such as food intake, water intake, body weight, organ weight and other clinical examination data were analyzed with the one-way ANOVA.

Data set [3] in a line: body weights of mice during the experiment. The conditions noted are these: LU, lutein 6.15 mg/kg bw oral daily, blue light, mean±S.E.M., in g (unit assumed). Here is the method: as §1
[4] abbreviates: after intervention of Y7 probiotics (dosage groups not distinguished).

As to “Lactobacillus reuteri Y7 [Y7 probiotics]”, the “gene expression of Bcl-2 compared with the BL group” value in data set [1] (Y7H high-dosage group) was “increased significantly”. The “gene expression of Bax, closeness to the NC group” value in data set [1] (Y7L low-dosage group versus LU group) is “closer to the NC group than the LU group”. Besides, in data set [1] (setting [4]), the “gene expression of Bax” value is on record as “significantly inhibited” and the “gene expression of Caspase3” value was “closer to the NC group”.

Turning to `CC1=C[C@H](O)CC(C)(C)[C@H]1/C=C/C(C)=C/C=C/C(C)=C/C=C/C=C(C)/C=C/C=C(C)/C=C/C1=C(C)C[C@@H](O)CC1(C)C` [lutein, reference compound], the “water intakes of mice” value in data set [2] (Day7) stood at 3.69 ± 0.86; in data set [2] (Day14), 4.17 ± 1.05; in data set [2] (Day21), 4.71 ± 0.42; in data set [2] (Day28), 3.65 ± 0.61; in data set [2] (Day35), 3.88 ± 0.31. Further, the “body weights of mice” value in data set [3] (Day 0) is 21.25 ± 1.52; in data set [3] (Day 7), 21.35 ± 1.97; in data set [3] (Day 14) it was 22.12 ± 2.09; in data set [3] (Day 21), 22.12 ± 2.09; in data set [3] (Day 28), 22.40 ± 1.97; in data set [3] (Day 35) it was 22.88 ± 2.86.
